Assays:
NCI-H522 = details: NCI-H522, 10 μM
A-549 = assay: SRB anti-proliferative assay; format: cell-based; details: Homo sapiens, A549; A-549, SRB, mean ± SE of 3
SN12C = details: 10 μM
MCF7 = details: MCF7, 10 μM
SF-268 = details: SF-268, 10 μM
EKVX = details: 10 μM
SNB-19 = details: SNB-19, 10 μM
NCI/ADR-RES = details: 10 μM
SR = details: 10 μM
T-47D = details: 10 μM
HCT-116 [1] = details: HCT-116, 10 μM
RPMI-8226 = details: RPMI-8226, 10 μM
PC-3 = assay: NCI SRB screening; format: cell-based, human; details: PC-3, 10 μM
MDA-MB-468 = details: MDA-MB-468, 10 μM
786-0 = details: 786-0, 10 μM
SK-MEL-28 = details: SK-MEL-28, 10 μM
MOLT-4 = details: MOLT-4, 10 μM
KM12 = details: KM12, 10 μM
SF-295 = details: SF-295, 10 μM
LOX IMVI = assay: NCI SRB screening; format: cell-based, human; details: 10 μM
MDA-MB-435 = assay: NCI SRB screening; format: cell-based; details: MDA-MB-435, 10 μM
HOP-62 = details: HOP-62, 10 μM
U251 = details: U251, 10 μM
UACC-257 = details: UACC-257, 10 μM
NCI-H226 = details: NCI-H226, 10 μM
RXF 393 = details: RXF 393, 10 μM
HT29 = details: HT29, 10 μM
SK-OV-3 = details: SK-OV-3, 10 μM
DU-145 = details: DU-145, 10 μM
BT-549 = details: BT-549, 10 μM
UO-31 = details: UO-31, 10 μM
HL-60(TB) = details: HL-60(TB), 10 μM
NCI-H23 = details: NCI-H23, 10 μM
OVCAR-3 = details: OVCAR-3, 10 μM
SNB-75 = details: SNB-75, 10 μM
HCT-116 [2] = assay: SRB anti-proliferative assay; format: cell-based; details: Homo sapiens; HCT-116, SRB, mean ± SE of 3
MDA-MB-231 = assay: SRB anti-proliferative assay; format: cell-based; details: Homo sapiens; MDA-MB-231, SRB, mean ± SE of 3
ACHN = details: 10 μM
HCC-2998 = assay: NCI SRB screening; format: cell-based, human; details: HCC-2998, 10 μM
A498 = details: A498, 10 μM
K-562 = details: K-562, 10 μM
IGROV1 = details: IGROV1, 10 μM
COLO 205 = assay: NCI SRB screening; format: cell-based, human; details: COLO 205, 10 μM

Structure (SMILES): C=CCn1cc(C=NN=C2C(=O)Nc3c(F)cccc32)c2ccccc21 [Compound 10c]
- GI % (NCI-H522): 34%
- IC50 (A-549): 43.8 ± 2.96 µM
- GI % (SN12C): – (Only GI % higher than 10% are shown)
- GI % (MCF7): 31%
- GI % (SF-268): – (Only GI % higher than 10% are shown)
- GI % (EKVX): 15%
- GI % (SNB-19): – (Only GI % higher than 10% are shown)
- GI % (NCI/ADR-RES): – (Only GI % higher than 10% are shown)
- GI % (SR): 58%
- GI % (T-47D): 50%
- GI % (HCT-116 [1]): 28%
- GI % (RPMI-8226): – (Only GI % higher than 10% are shown)
- GI % (PC-3): 10%
- GI % (MDA-MB-468): 54%
- GI % (786-0): – (Only GI % higher than 10% are shown)
- GI % (SK-MEL-28): – (Only GI % higher than 10% are shown)
- GI % (MOLT-4): 19%
- GI % (KM12): – (Only GI % higher than 10% are shown)
- GI % (SF-295): – (Only GI % higher than 10% are shown)
- GI % (LOX IMVI): – (Only GI % higher than 10% are shown)
- GI % (MDA-MB-435): – (Only GI % higher than 10% are shown)
- GI % (HOP-62): – (Only GI % higher than 10% are shown)
- GI % (U251): – (Only GI % higher than 10% are shown)
- GI % (UACC-257): – (Only GI % higher than 10% are shown)
- GI % (NCI-H226): 56%
- GI % (RXF 393): – (Only GI % higher than 10% are shown)
- GI % (HT29): – (Only GI % higher than 10% are shown)
- GI % (SK-OV-3): – (Only GI % higher than 10% are shown)
- GI % (DU-145): – (Only GI % higher than 10% are shown)
- GI % (BT-549): – (Only GI % higher than 10% are shown)
- GI % (UO-31): 29%
- GI % (HL-60(TB)): – (Only GI % higher than 10% are shown)
- GI % (NCI-H23): – (Only GI % higher than 10% are shown)
- GI % (OVCAR-3): 13%
- GI % (SNB-75): – (Only GI % higher than 10% are shown)
- IC50 (HCT-116 [2]): 7.3 ± 0.47 µM
- IC50 (MDA-MB-231): 35.4 ± 1.92 µM
- GI % (ACHN): 11%
- GI % (HCC-2998): – (Only GI % higher than 10% are shown)
- GI % (A498): – (Only GI % higher than 10% are shown)
- GI % (K-562): 20%
- GI % (IGROV1): 31%
- GI % (COLO 205): – (Only GI % higher than 10% are shown)

Structure (SMILES): C=CCn1cc(C=NN=C2C(=O)Nc3ccc(Cl)cc32)c2ccccc21 [Compound 10d]
- GI % (NCI-H522): 17%
- IC50 (A-549): 53.1 ± 4.13 µM
- GI % (SN12C): – (Only GI % higher than 10% are shown)
- GI % (MCF7): 18%
- GI % (SF-268): – (Only GI % higher than 10% are shown)
- GI % (EKVX): 33%
- GI % (SNB-19): – (Only GI % higher than 10% are shown)
- GI % (NCI/ADR-RES): – (Only GI % higher than 10% are shown)
- GI % (SR): 33%
- GI % (T-47D): 30%
- GI % (HCT-116 [1]): – (Only GI % higher than 10% are shown)
- GI % (RPMI-8226): – (Only GI % higher than 10% are shown)
- GI % (PC-3): – (Only GI % higher than 10% are shown)
- GI % (MDA-MB-468): 36%
- GI % (786-0): – (Only GI % higher than 10% are shown)
- GI % (SK-MEL-28): – (Only GI % higher than 10% are shown)
- GI % (MOLT-4): 14%
- GI % (KM12): – (Only GI % higher than 10% are shown)
- GI % (SF-295): – (Only GI % higher than 10% are shown)
- GI % (LOX IMVI): – (Only GI % higher than 10% are shown)
- GI % (MDA-MB-435): – (Only GI % higher than 10% are shown)
- GI % (HOP-62): – (Only GI % higher than 10% are shown)
- GI % (U251): – (Only GI % higher than 10% are shown)
- GI % (UACC-257): – (Only GI % higher than 10% are shown)
- GI % (NCI-H226): 41%
- GI % (RXF 393): – (Only GI % higher than 10% are shown)
- GI % (HT29): – (Only GI % higher than 10% are shown)
- GI % (SK-OV-3): – (Only GI % higher than 10% are shown)
- GI % (DU-145): – (Only GI % higher than 10% are shown)
- GI % (BT-549): – (Only GI % higher than 10% are shown)
- GI % (UO-31): 23%
- GI % (HL-60(TB)): – (Only GI % higher than 10% are shown)
- GI % (NCI-H23): – (Only GI % higher than 10% are shown)
- GI % (OVCAR-3): – (Only GI % higher than 10% are shown)
- GI % (SNB-75): – (Only GI % higher than 10% are shown)
- IC50 (HCT-116 [2]): 28.5 ± 1.59 µM
- IC50 (MDA-MB-231): 42.9 ± 2.51 µM
- GI % (ACHN): – (Only GI % higher than 10% are shown)
- GI % (HCC-2998): – (Only GI % higher than 10% are shown)
- GI % (A498): – (Only GI % higher than 10% are shown)
- GI % (K-562): – (Only GI % higher than 10% are shown)
- GI % (IGROV1): 23%
- GI % (COLO 205): – (Only GI % higher than 10% are shown)

Source: paper PMC7717600, “Novel [(N-alkyl-3-indolylmethylene)hydrazono]oxindoles arrest cell cycle and induce cell apoptosis by inhibiting CDK2 and Bcl-2: synthesis, biological evaluation and in silico studies” (Journal of Enzyme Inhibition and Medicinal Chemistry, 2020)
